The values that follow come from ChEMBL document CHEMBL1141952, “Conformationally restricted analogs of Combretastatin A-4 derived from SU5416” (Bioorg Med Chem Lett, 2005).

One assay deals with PC-3. The assay is described as follows: Antiproliferative activity against androgen-independent prostate cancer PC3 cell line by MTS assay. It is filed as functional, cell-based. The settings on record: Homo sapiens.
The target of a further assay is Tubulin (Sus scrofa, UniProt P02554+P02550). The assay is described as follows: Inhibition of porcine brain tubulin polymerization by GTP-induced assembly.
The subject of a further assay is MDA-MB-231. The assay is described as follows: Antiproliferative activity against estrogen-independent breast cancer MDA-MB-231 cell line by MTS assay. It is filed as functional, cell-based. The settings on record: Homo sapiens.
The next assay deals with MCF7. The assay is described as follows: Antiproliferative activity against estrogen-dependent breast cancer MCF7 cell line by MTS assay. To be noted: Homo sapiens. Type of assay: functional, cell-based. A general note: Tetrazolium assays rely on reduction of a dye to a coloured formazan, in cell work by metabolically active cells.

The IC50 is the concentration that inhibits the measured activity by half. Low readings indicate greater potency in that assay, high ones weaker potency in that assay. As for `O=C1Nc2ccccc2/C1=C\c1ccc(O)cc1`, the IC50 in the assay with PC-3 is more than 50 µM; against Tubulin it was more than 40 µM; with MDA-MB-231, 17.5 µM; in the assay with MCF7 it was 25.7 µM.

Consider `COc1ccc2c(c1)NC(=O)/C2=C/c1ccc(O)cc1`, for which the IC50 in the assay with PC-3 is 0.64 µM; against Tubulin it was 18 µM; in the assay on MDA-MB-231 it was 2.6 µM; with MCF7, 0.23 µM.

In the case of `COc1ccc2c(c1)NC(=O)/C2=C/c1cc(OC)c(OC)c(OC)c1`, the IC50 in the assay on PC-3 was 0.0082 µM; at Tubulin it was 4.5 µM; in the assay on MDA-MB-231, 0.0009 µM; in the assay on MCF7, 0.0007 µM.

As to `O=C1Nc2cc(O)ccc2/C1=C\c1cccc(O)c1`, the IC50 was 19.5 µM in the assay on PC-3, more than 40 µM at Tubulin, 4.3 µM in the assay on MDA-MB-231 and 8.6 µM in the assay on MCF7.

Consider `O=C1Nc2cc(O)ccc2/C1=C\c1ccc(O)cc1`, for which the IC50 in the assay on PC-3 was 44.7 µM; against Tubulin it was more than 40 µM; in the assay with MDA-MB-231, 9.4 µM; with MCF7 it was 19.7 µM.

As for `O=C1Nc2ccccc2/C1=C\c1cccc(O)c1`, the IC50 in the assay with PC-3 was more than 50 µM; against Tubulin, more than 40 µM; in the assay with MDA-MB-231, 16.9 µM; in the assay with MCF7, 31.4 µM.

On to `COc1ccc2c(c1)NC(=O)/C2=C/c1cccc(O)c1`, for which the IC50 with PC-3 is 0.54 µM; against Tubulin, 9.1 µM; in the assay on MDA-MB-231, 1.4 µM; with MCF7, 0.39 µM.

Turning to `COc1cc([C@@H]2c3cc4c(cc3[C@H](O)[C@H]3COC(=O)[C@H]23)OCO4)cc(OC)c1OC` [PODOFILOX], the IC50 in the assay with PC-3 came to 0.013 µM; with MDA-MB-231 it was 0.008 µM.
